# In patent US12428415B2, “Matriptase 2 inhibitors and uses thereof” (Disc Medicine, Inc., priority 2018, dated 2025):
# Molecular target: T1, Human Recombinant Matriptase 2 (Homo sapiens, UniProt Q8IU80)
# T1 construct: purchased Enzo Life Sciences (an in-house preparation was also used) ALX-201-752-1
# T1 sequence (Q8IU80 1-811): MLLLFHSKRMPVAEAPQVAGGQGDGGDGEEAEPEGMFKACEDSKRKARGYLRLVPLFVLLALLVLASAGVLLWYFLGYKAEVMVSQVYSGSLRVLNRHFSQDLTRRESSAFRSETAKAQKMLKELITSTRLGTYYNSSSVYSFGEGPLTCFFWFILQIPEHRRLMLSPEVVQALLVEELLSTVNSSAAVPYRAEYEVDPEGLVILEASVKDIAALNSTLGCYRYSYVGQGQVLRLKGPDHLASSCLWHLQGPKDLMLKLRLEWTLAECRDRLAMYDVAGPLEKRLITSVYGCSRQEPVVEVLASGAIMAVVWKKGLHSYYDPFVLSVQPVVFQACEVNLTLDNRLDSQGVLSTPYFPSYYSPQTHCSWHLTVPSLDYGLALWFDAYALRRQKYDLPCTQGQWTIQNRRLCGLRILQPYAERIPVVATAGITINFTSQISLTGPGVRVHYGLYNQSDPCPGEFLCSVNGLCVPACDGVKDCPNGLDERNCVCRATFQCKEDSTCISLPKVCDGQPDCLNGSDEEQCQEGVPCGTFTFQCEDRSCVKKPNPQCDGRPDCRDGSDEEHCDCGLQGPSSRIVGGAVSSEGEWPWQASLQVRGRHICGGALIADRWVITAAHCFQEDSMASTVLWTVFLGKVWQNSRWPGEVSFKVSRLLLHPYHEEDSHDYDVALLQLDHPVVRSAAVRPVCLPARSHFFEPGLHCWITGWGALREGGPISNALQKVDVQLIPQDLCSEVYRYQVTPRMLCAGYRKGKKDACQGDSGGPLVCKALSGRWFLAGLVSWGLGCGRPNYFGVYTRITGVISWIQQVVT
# Assay: Matriptase 2 fluorescence based inhibition assay, Method A (100 mM TRIS pH 9, 1 mg/mL BSA)
# Assay type: biochemical
# Settings: 1 uM; Assay Used A; read-out: Mar-2 % inhibition at 1 uM
# How it was run: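 At 25° C in 100 mM TRIS pH 9 with 1 mg/mL BSA and 1% DMSO, compounds were preincubated 30 min with 7 nM commercial or 15 nM in-house protein before adding 100 μM Boc-Gln-Ala-Arg-7-amido-4-methyl coumarin. Fluorescence at 360/480 nm after 60 min; single points at 1 and 10 μM, IC50 by variable-slope nonlinear regression.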
row,SMILES,inhibition at 1 µM [%]
1,COc1ccc(NC(=O)c2cc3ccc(C(=N)N)cc3n2Cc2ccc(C(N)=O)cc2)cc1OC [Compound I-69],0 to 25
2,C[C@H]1CC[C@H](NC(=O)c2cc3ccc(C(=N)N)cc3n2Cc2ccc(C(N)=O)cc2)CC1 [Compound I-186],0 to 25
3,"COC(=O)c1ccc(Cn2c(C(=O)N[C@H]3CC[C@H](N)CC3)cc3ccc(C(=N)N)cc32)cc1 [Compound I-21, Methyl 4-((2-(((1r,4r)-4-aminocyclohexyl)carbamoyl)-6-carbamimidoyl-1H-indol-1-yl)methyl)-benzoate]",50 to 75
4,N=C(N)c1ccc2cc(C(=O)Nc3ccc(N4CCCC4)cc3)n(Cc3ccc(C(N)=O)cc3)c2c1 [Compound I-90],0 to 25
5,"N=C(N)c1ccc2cc(C(=O)NC3CCN(CCN)CC3)n(CCc3ccccc3)c2c1 [Compound I-28, N-(1-(2-Aminoethyl)piperidin-4-yl)-6-carbamimidoyl-1-phenethyl-1H-indole-2-carboxamide]",25 to 50
6,N=C(N)c1ccc2cc(C(=O)Nc3cccc(C(N)=O)c3)n(CCc3ccccc3)c2c1 [Compound I-26],0 to 25
7,CC(C)c1ccc(Cn2c(C(=O)NC3CCC(F)(F)CC3)cc3ccc(C(=N)N)cc32)cc1 [Compound I-15],0 to 25

# Results, then the compound that gave them:
row,inhibition at 1 µM [%],SMILES
1,0 to 25,C[C@@H](NC(=O)c1cc2ccc(C(=N)N)cc2n1Cc1ccc(C(N)=O)cc1)C1CCCCC1 [Compound I-194]
2,0 to 25,N=C(N)c1ccc2cc(C(=O)Nc3ccc(N4CCCC4)cc3)n(CCS(=O)(=O)c3ccccc3)c2c1 [Compound I-44]
3,0 to 25,N=C(N)c1ccc2cc(C(=O)Nc3cccc(OCC4CC4)c3)n(Cc3ccc(C(N)=O)cc3)c2c1 [Compound I-121]

# Same assay, conditions: at 1 uM; Assay Used = A; read-out: Mar-2 % inhibition at 1 uM
row,SMILES,inhibition at 1 µM [%]
1,N=C(N)NCCC1CCN(C(=O)c2cc3ccc(C(=N)N)cc3n2Cc2ccc3ccccc3c2)CC1 [Compound I-360],25 to 50
2,N=C(N)c1ccc2cc(C(=O)N3CC[C@@H](F)C3)n(Cc3ccc(Oc4ccccc4)cc3)c2c1 [Compound I-313],0 to 25
3,N=C(N)c1ccc2cc(C(=O)N[C@H]3CCNC3)n(Cc3ccc(C(N)=O)cc3)c2c1 [Compound I-205],25 to 50
4,N=C(N)c1ccc2cc(C(=O)NC3CCC(F)(F)CC3)n(Cc3ccc(-c4ccccc4)cc3)c2c1 [Compound I-235],0 to 25
5,N=C(N)c1ccc2c(Cl)c(C(=O)N3CCC(F)(F)C3)n(Cc3ccc(C(N)=O)cc3)c2c1 [Compound I-354],0 to 25
6,CC1CCN(C(=O)c2cc3ccc(C(=N)N)cc3n2CCS(=O)(=O)c2ccccc2)CC1 [Compound I-340],0 to 25
7,N=C(N)c1ccc2cc(C(=O)NC3CCC(F)(F)CC3)n(Cc3ccc(NC(=O)CCN)cc3)c2c1 [I- s263],0 to 25
8,N=C(N)c1ccc2cc(C(=O)N[C@H]3CC[C@H](N)CC3)n(Cc3cccc(Oc4ccccc4)c3)c2c1 [Compound I-240],50 to 75

# Second part, the compound after the results:
row,inhibition at 1 µM [%],SMILES
1,0 to 25,N=C(N)c1ccc2cc(C(=O)N3CCC(F)(F)C3)n(Cc3ccc(NC(=O)CCN)cc3)c2c1 [Compound I-376]
2,25 to 50,"N=C(N)NCCCNC(=O)C1CCN(C(=O)c2cc3ccc(C(=N)N)cc3n2Cc2ccc(C(F)(F)F)cc2)CC1 [Compound I-359, 1-(6-Carbamimidoyl-1-(4-(trifluoromethyl)benzyl)-1H-indole-2-carbonyl)-N-(3-guanidinopropyl)-piperidine-4-carboxamide]"
3,0 to 25,N=C(N)c1ccc2cc(C(=O)N3CCC(F)CC3)n(Cc3ccc(C(=O)NCCN)cc3)c2c1 [Compound I-393]
4,0 to 25,N=C(N)c1ccc2cc(C(=O)N3CCC(CCN)CC3)n(CCS(=O)(=O)c3ccccc3)c2c1 [Compound I-337]
5,0 to 25,CC(C)(O)CNC(=O)c1cc2ccc(C(=N)N)cc2n1Cc1ccc(C(N)=O)cc1 [Compound I-208]
